Where two headings read alike, the source gives them in different places.
Legend:
E. coli [1] = assay: Minimal inhibitory concentration (MIC) determination, Example 1; format: cell-based; details: Escherichia coli, 24 h, MHB, 37° C., read-out: Minimum inhibitory concentration (MIC) E. coli
Experimental: (§1) The antibacterial activity of the compounds was determined by the determination of minimal inhibitory concentration (MIC) by following the previously published protocol (see Nizalapur, S.; Ho, K. K.; Kimyon, Ö.; Yee, E.; Berry, T.; Manefield, M.; Cranfield, C. G.; Willcox, M.; Black, D. S.; Kumar, N. Org. Biomol. Chem. 2016, 14, 3623). The compounds to be tested were dissolved and diluted in autoclaved Millipore water. A single colony of bacteria was cultured overnight in TSB at 37° C. The resulting bacteria were collected by centrifugation and re-suspended in the same volume of MHB twice. Optical density (OD) of the resulting culture was adjusted to 0.1 at 600 nm (10^8 CFU/mL) in MHB, and the adjusted culture was further diluted to […] in MHB. Then, 100 μL of the bacterial solution was added to wells of a 96-well plate containing 100 μL of serially diluted compound. Two controls were also prepared: one containing 100 μL of MHB media and 100 μL sterile water, and the other containing 100 μL of bacterial solution and 100 μL sterile water. […] The MIC value was determined as the lowest concentration of compound that inhibited the complete growth of the bacteria (i.e. OD similar to that of the control having no bacteria). Each experiment was performed in triplicate and was repeated in three independent experiments.
(§2) The results of the MIC assay are given below in Table 1.

S. aureus [2] = assay: as above; format: cell-based; details: Staphylococcus aureus
Experimental: as §1, §2

S. marcescens = assay: Biofilm disruption assay, established biofilms, crystal violet staining; format: cell-based, Serratia marcescens; details: 250 μM, 24 h treatment
Experimental: (§3) Bacterial cultures were grown in TSB media for overnight at 37° C. with shaking at 150 r.p.m. Cultures were diluted (1:20) in YPD medium and 200 μl aliquots were dispensed to flat bottom 96-well plate wells (Sarstedt Australia). Cultures were supplemented with varying concentrations of synthetic compounds dissolved in water. For pre-established biofilm assay, cultures were grown in 96-well plate wells overnight prior to supplementation with synthetic compounds. Control cultures were supplemented with an equal amount of DMSO. Plates were sealed with self-adhesive microplate sealers (TopSeal-A, PerkinElmer) to allow air diffusion and to prevent condensation. Cultures were incubated overnight at 37° C. with shaking at 150 r.p.m. Biofilms adhered on polystyrene substratum were quantified by crystal violet staining as described previously (see Wiegand, I.; Hilpert, K.; Hancock, R. E. W. Nat. Protocols 2008, 3 (2), 163-175). All cultures were prepared in triplicates. Error bars represent the standard error of three independent experiments (n=3).
(§4) The biofilm disruption activities of the compounds were investigated using crystal violet staining according to a previously published protocol (G. A. O'Toole, J Vis Exp, 2011, (47), pii: 2437, DOI: 10.3791/2437, 2437). The ability of compounds (34-38, 51-56, 61, 62, 65 and 66) to disrupt the established biofilms of the Gram-positive bacteria S. aureus and the Gram-negative bacteria Pseudomonas aeruginosa, Serratia marcescens and E. coli, was determined at a concentration of 250 μM. In this assay, bacterial cultures were grown on a polystyrene substratum overnight prior to treatment with the compounds. In addition, the ability of these compounds to inhibit the formation of biofilms of P. aeruginosa and S. marcescens was also investigated at 250 μM, whereby the bacterial cultures were grown in the presence of test compounds.

E. coli [3] = assay: as above; format: cell-based; details: 250 μM, 24 h treatment
Experimental: as §3, §4

[4] = test system: Pseudomonas aeruginosa (PAO1); assay: as above; format: cell-based; details: 250 μM, 24 h treatment
Experimental: as §3, §4

S. aureus [5] = assay: as above; format: cell-based; details: 250 μM, 24 h treatment
Experimental: as §3, §4

S. aureus biofilms = assay: Confocal microscopy of established biofilms, Live/dead stain; format: cell-based; details: 250 μM
[6] = test system: Pseudomonas aeruginosa (PAO1); assay: Biofilm inhibition assay (inhibition of biofilm formation), crystal violet staining; format: cell-based; details: 24 h, read-out: inhibition of biofilm formation by P. aeruginosa
Experimental: as §3, with “no-established” for “pre-established”, “along” for “prior to supplementation”, “water.” for “DMSO.”
as §4

[7] = test system: MRC-5 normal human lung fibroblasts; assay: Toxicity assay, Alamar blue, Example 1; format: cell-based; details: 72 h incubation
Experimental: The normal human lung fibroblasts MRC-5 were cultured in minimal essential medium (MEM, Invitrogen) supplemented with 10% foetal calf serum (FCS), 1% L-glutamine-penicillin-streptomycin, 2% sodium bicarbonate, 1% non-essential amino acids (NEAA) and 1% sodium pyruvate. The cell line was maintained at 37° C. in 5% CO2 as an adherent monolayer and was passaged upon reaching confluence by standard cell culture techniques. MRC-5 cells were seeded at 2×10^4 cells per well in 96-well plates to ensure full confluence (quiescence). Cells were treated 24 h after seeding with 0.1 to 1000 μM of compounds. After 72 h drug incubation, the treated media was replaced with fresh media containing 10% Alamar blue and the cells were incubated for another 6 h. The metabolic activity was detected by spectrophotometric analysis by assessing the absorbance of Alamar blue as previously described by Pasquier et. al (see Pasquier, E.; Ciccolini, J.; Carre, M.; Giacometti, S.; Fanciullino, R.; Pouchy, C.; Montero, M.-P.; Serdjebi, C.; Kavallaris, M.; André, N. Oncotarget 2011, 2, 797).
Cell proliferation was determined and expressed as a percentage of untreated control cells. The determination of IC50 values was performed using GraphPad Prism 6 (San Diego, Calif., USA).
To further evaluate the utility of these novel guanylated peptidomimetics for medical applications, it was essential to determine their specificity towards bacterial cells over mammalian cells.

S. marcescens biofilms = assay: Confocal microscopy of non-established biofilms, Live/dead stain; format: cell-based, Serratia marcescens; details: 250 μM
Experimental: S. aureus and Serratia marcescens biofilms were grown by adding 1.5 ml of bacterial cells (OD600 nm˜0.600) suspended in fresh TSB medium into 35×10 mm polystyrene petri dishes and incubated over 24 h at 37° C. in a shaking incubator at 120 r.p.m. Cultures were supplemented with varying concentrations of synthetic compounds dissolved in water. Control cultures were supplemented with an equal amount of water. After 24 h, the biofilm growth medium was discarded and the biofilms were gently rinsed 3 times with PBS (pH: 7.0) in order to remove any planktonic bacterial cells. The remaining substratum adhered biofilms were then stained with Live/dead stain (Invitrogen, Oregon, USA) for 20 mins in the dark and then subjected to confocal microscopy. Stained biofilms were visualized with FV 1200 Confocal microscope.

S. aureus (SA38) = details: Literature value; cited from earlier work
[8] = MHB, 37° C., 24 h, read-out: Minimum inhibitory concentration (MIC) S. aureus

Compound | MIC (E. coli [1]) | MIC (S. aureus [2]; [8]) | disruption of established biofilms of S. marcescens (S. marcescens) | disruption of established biofilms of E. coli (E. coli [3]) | disruption of established biofilms of P. aeruginosa [4] | disruption of established biofilms of S. aureus (S. aureus [5]) | confocal microscopy, effect on pre-established S. aureus biofilm (S. aureus biofilms) | MIC (S. aureus [2]; MIC in μM as compared with MRC-5 IC50, read-out: equivalent MIC values) | inhibition at 250 µM [6] | toxicity (IC50) against MRC-5 human fibroblast cells [7] | confocal microscopy, effect on S. marcescens biofilm formation (S. marcescens biofilms) | MIC (S. aureus (SA38))
COC(=O)C(CCCN)NC(=O)C(CCCCN)NC(=O)C(=O)c1cc(Br)ccc1NC(=O)c1ccc2ccccc2c1.Cl.Cl (stereo not drawn) [Compound 62, Methyl 2-(2-(2-(2-(2-naphthamido)-5-bromophenyl)-2-oxoacetamido)-6-aminohexanamido)-5-aminopentanoate dihydrochloride] | 21 µg/mL | 23 µg/mL | 49% | 42% | 46% | 61% | disrupted the pre-established biofilm significantly |  |  |  |  | 
COC(=O)[C@H](CCCNC(=N)N)NC(=O)[C@H](CCCNC(=N)N)NC(=O)C(=O)c1ccccc1NC(=O)c1ccc2ccccc2c1.Cl.Cl [Compound 65, Methyl (2-(2-(2-naphthamido)phenyl)-2-oxoacetyl)arginylargininate dihydrochloride] | 90 µg/mL | 18 µg/mL | 60% |  |  |  |  | 31 µM | 65% | not reaching a 50% reduction of cell viability at the highest tested dose | inhibited biofilm formation | 
MSI-78 |  |  |  |  |  |  |  |  |  |  |  | 13 µM

Reference: patent publication US10988444B2, “Antimicrobial compounds” (NEWSOUTH INNOVATIONS PTY LIMITED, priority 2016, dated 2021)
